According to patent US20220017572A1, “GEMINOID LIPOPEPTIDE COMPOUNDS AND THEIR USES” (Erasmus University Medical Center Rotterdam, priority 2016, published 2022):
Non-standard residues stand in square brackets, D forms with d. Residues, ends and D or L forms follow the SMILES beside them. C12 = C12 alkyl chain at peptide end (geminoid); C16 = C16 alkyl chain at peptide end (geminoid); C20 = C20 alkyl chain at peptide end (geminoid); C3 = C3 alkyl chain at peptide end

target: T1, dengue 2 protease (Dengue virus type 2, UniProt P14340); assay: Dengue 2 protease inhibition, hydrolysis of Z-RR-MCA; assay type: biochemical, dengue 2 virus; parameters: Activity with inhibitors: unit not given here; conditions: not given
T1 construct: The active site of the dengue protease is in the N-terminal part of NS3
Protocol: The active site of the dengue protease is in the N-terminal part of NS3 which is also a serine protease with catalytic triad Asp79-His51-Ser135, but requires […] (CF40) for activity; the inhibition reported here was studied on a […] (CF40-GGGGSGGGG-NS3; (SEQ ID NO:54)) which has also been structurally characterized [Erbel et al., 2006; Luo et al. 2008].
Substrate was added in a concentration 10 times the Km, and the inhibitor compounds of type C (C16-KGnK-C16, C16-KAnK-C16, and C16-RAnR-C16) were added in increasing concentrations (1.0, 5.0, 10.0, 20.0, 40.0 μL) from a stock solution of 2 mg in 1 mL DMSO. The residual activity was measured in a Hitachi F2500 spectrofluorimeter, and plots were fitted using the Grafit® software (Erithracus Software, Horley, Surrey, UK). All the assays were calculated by the Morrison equation for competitive inhibition (eq. 1, [Morrison, 1969]). The amount of substrate used for the tight binding titration experiments follow all the requirements, where [S]<<Km for all enzymes, so the Kiapp=Ki.
Range of Proteases Inhibited by Geminoids, Determination of Ki with Z-RR-MCA (Dengue 2 Protease) and Ac-RVRR-MCA (Furin) (SEQ ID NO:60).

T1 sequence (P14340 1476-1653): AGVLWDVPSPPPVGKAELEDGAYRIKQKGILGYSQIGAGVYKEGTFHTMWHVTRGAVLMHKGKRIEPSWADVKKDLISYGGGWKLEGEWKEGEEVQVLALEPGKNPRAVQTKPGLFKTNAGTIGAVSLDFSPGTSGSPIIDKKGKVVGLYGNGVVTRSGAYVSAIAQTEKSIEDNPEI

| Compound | Ki |
| --- | --- |
| CCCCCCCCCCCCCCCCNC(=O)[C@H](CCCNC(=N)N)NC(=O)[C@H](C)NC(=O)[C@H](CCCNC(=N)N)NC(=O)CCCCCCCCCCCCCCC [C16RARC16, n-C15H31C(O)-Arg-Ala-Arg-(n-C16H33).2TFA] | 3.1 µM |
| CCCCCCCCCCCCNC(=O)[C@H](CCCCN)NC(=O)[C@H](C)NC(=O)[C@H](C)NC(=O)[C@H](C)NC(=O)[C@H](CCCCN)NC(=O)CCCCCCCCCCC [C12KA3KC12, n-C11H23C(O)-Lys-(Ala)3-Lys-(n-C12H25).2TFA] (HELM PEPTIDE1{[CCCCCCCCCCCC(=O)[*:2]].K.A.A.A.K.[CCCCCCCCCCCCN[*:1]]}$$$$V2.0) | 5.4 µM |

same assay, conditions: 5 μM of inhibitor; 10 μM Z-RR-MCA, pH 9.0, 37° C.; initial activity in UAF/min

| Compound | Activity with inhibitors |
| --- | --- |
| CCCCCCCCCCCCCCCCNC(=O)[C@H](CCCNC(=N)N)NC(=O)[C@H](C)NC(=O)[C@H](CCCNC(=N)N)NC(=O)CCCCCCCCCCCCCCC [C16RARC16, n-C15H31C(O)-Arg-Ala-Arg-(n-C16H33).2TFA] | 27 |
| CCCCCCCCCCCCNC(=O)[C@H](CCCCN)NC(=O)[C@H](C)NC(=O)[C@H](C)NC(=O)[C@H](C)NC(=O)[C@H](CCCCN)NC(=O)CCCCCCCCCCC [C12KA3KC12, n-C11H23C(O)-Lys-(Ala)3-Lys-(n-C12H25).2TFA] (HELM PEPTIDE1{[CCCCCCCCCCCC(=O)[*:2]].K.A.A.A.K.[CCCCCCCCCCCCN[*:1]]}$$$$V2.0) | 30 |

target: T1, dengue 2 protease; assay: Dengue 2 protease inhibition in presence of Triton X-100 (detergent test, Nature Protocol); assay type: biochemical, dengue 2 virus; conditions: 5 μM of inhibitor, 0.05% Triton X-100
From the text: A further investigation of the interactions of the geminoid inhibitors with biological membranes and with membrane-bound proteases is needed. […] The preparation and tests of peptides symmetrically, asymmetrically and singly alkylated with saturated, short (C6), and unsaturated (C18:1) alkyl tails are in progress.

| Compound | % recovery in presence of Triton |
| --- | --- |
| CCCCCCCCCCCCCCCCNC(=O)[C@H](CCCNC(=N)N)NC(=O)[C@H](C)NC(=O)[C@H](CCCNC(=N)N)NC(=O)CCCCCCCCCCCCCCC [C16RARC16, n-C15H31C(O)-Arg-Ala-Arg-(n-C16H33).2TFA] | 52% |
| CCCCCCCCCCCCNC(=O)[C@H](CCCCN)NC(=O)[C@H](C)NC(=O)[C@H](C)NC(=O)[C@H](C)NC(=O)[C@H](CCCCN)NC(=O)CCCCCCCCCCC [C12KA3KC12, n-C11H23C(O)-Lys-(Ala)3-Lys-(n-C12H25).2TFA] (HELM PEPTIDE1{[CCCCCCCCCCCC(=O)[*:2]].K.A.A.A.K.[CCCCCCCCCCCCN[*:1]]}$$$$V2.0) | 45% |

same assay, conditions: 5 μM of inhibitor, 0.05% Triton X-100; initial activity in UAF/min

| Compound | Activity with 0.05% Triton |
| --- | --- |
| CCCCCCCCCCCCCCCCNC(=O)[C@H](CCCNC(=N)N)NC(=O)[C@H](C)NC(=O)[C@H](CCCNC(=N)N)NC(=O)CCCCCCCCCCCCCCC [C16RARC16, n-C15H31C(O)-Arg-Ala-Arg-(n-C16H33).2TFA] | 105 |
| CCCCCCCCCCCCNC(=O)[C@H](CCCCN)NC(=O)[C@H](C)NC(=O)[C@H](C)NC(=O)[C@H](C)NC(=O)[C@H](CCCCN)NC(=O)CCCCCCCCCCC [C12KA3KC12, n-C11H23C(O)-Lys-(Ala)3-Lys-(n-C12H25).2TFA] (HELM PEPTIDE1{[CCCCCCCCCCCC(=O)[*:2]].K.A.A.A.K.[CCCCCCCCCCCCN[*:1]]}$$$$V2.0) | 85 |

test system: DENV2 protease replicon; assay: DENV2 protease replicon assay; assay type: cell-based; conditions: lowest concentration with observed activity in replicon assay

| Compound | Replicon activity [μM] (1) |
| --- | --- |
| C16-D-LKAK-C16: geminoid in shorthand Cp-Zn-Cq, D-peptide, SEQ ID NO: 75 (C16-[dL][dK][dA][dK]-C16) | 9.9 µM |
| C16-D-AKAKS-C16: geminoid in shorthand Cp-Zn-Cq, D-peptide, SEQ ID NO: 89 (C16-[dA][dK][dA][dK][dS]-C16) | 5.0 µM |
| C12-LKAK-C12: geminoid in shorthand Cp-Zn-Cq, peptide SEQ ID NO: 75 | 10.0 µM |
| C16-LAKK-C16: geminoid in shorthand Cp-Zn-Cq, peptide SEQ ID NO: 63 | 5.0 µM |
| C2-LKAK-C3: alkylated peptide in shorthand Cp-Zn-Cq, peptide SEQ ID NO: 75 (Et-LKAK-C3) | 10.0 µM |
| C8-AKKK-C8: alkylated peptide in shorthand Cp-Zn-Cq, peptide SEQ ID NO: 71 ({C8 alkyl}-AKKK-{C8 alkyl}) | 10.0 µM |
| C16-LKKK-C16: geminoid in shorthand Cp-Zn-Cq, peptide SEQ ID NO: 72 | 1.0 µM |
| C8-LKAK-C8: alkylated peptide in shorthand Cp-Zn-Cq, peptide SEQ ID NO: 75 ({C8 alkyl}-LKAK-{C8 alkyl}) | 10.0 µM |
| C16-AFKK-C16: geminoid in shorthand Cp-Zn-Cq, peptide SEQ ID NO: 68 | 5.0 µM |
| C12-RARK-C12: geminoid in shorthand Cp-Zn-Cq, peptide SEQ ID NO: 77 | 1.0 µM |
| C8-LKKK-C8: alkylated peptide in shorthand Cp-Zn-Cq, peptide SEQ ID NO: 72 | 10.0 µM |
| C20-AKKK-C20: geminoid in shorthand Cp-Zn-Cq, peptide SEQ ID NO: 71 | 3.0 µM |
| C16-D-LKAKG-C16: geminoid in shorthand Cp-Zn-Cq, D-peptide, SEQ ID NO: 88 (C16-[dL][dK][dA][dK]G-C16) | 3.0 µM |
| C16-LLKK-C16: geminoid in shorthand Cp-Zn-Cq, peptide SEQ ID NO: 66 | 3.0 µM |
| C16-LFKK-C16: geminoid in shorthand Cp-Zn-Cq, peptide SEQ ID NO: 69 | 10.0 µM |
| C16-AAKK-C16: geminoid in shorthand Cp-Zn-Cq, peptide SEQ ID NO: 62 | 5.0 µM |
| C8-AKAK-C8: alkylated peptide in shorthand Cp-Zn-Cq, peptide SEQ ID NO: 74 ({C8 alkyl}-AKAK-{C8 alkyl}) | 10.0 µM |
| C16-FAKK-C16: geminoid in shorthand Cp-Zn-Cq, peptide SEQ ID NO: 64 | 3.0 µM |
| C20-LKKK-C20: geminoid in shorthand Cp-Zn-Cq, peptide SEQ ID NO: 72 | 1.0 µM |
| C16-LLQK-C16: geminoid in shorthand Cp-Zn-Cq, peptide SEQ ID NO: 81 | 0.3 µM |
| C16-GLKR-C16: geminoid in shorthand Cp-Zn-Cq, peptide SEQ ID NO: 84 | 3.0 µM |
| C16-QRKR-C16: geminoid in shorthand Cp-Zn-Cq, peptide SEQ ID NO: 85 | 3.0 µM |
| C16-ALKK-C16: geminoid in shorthand Cp-Zn-Cq, peptide SEQ ID NO: 65 | 10.0 µM |
| C16-D-AKAKG-C16: geminoid in shorthand Cp-Zn-Cq, D-peptide, SEQ ID NO: 87 (C16-[dA][dK][dA][dK]G-C16) | 3.0 µM |

| Compound | Replicon activity [μM] (1) |
| --- | --- |
| C3-LKKK-C3: alkylated peptide in shorthand Cp-Zn-Cq, peptide SEQ ID NO: 72 | 10.0 µM |
| C3-ARRK-C3: alkylated peptide in shorthand Cp-Zn-Cq, peptide SEQ ID NO: 76 ({C3 alkyl}-ARRK-{C3 alkyl}) | 3.0 µM |
| C16-D-AKAK-C16: geminoid in shorthand Cp-Zn-Cq, D-peptide, SEQ ID NO: 74 (C16-[dA][dK][dA][dK]-C16) | 2.9 µM |
| C20-FKKK-C20: geminoid in shorthand Cp-Zn-Cq, peptide SEQ ID NO: 73 ({C20 alkyl}-FKKK-{C20 alkyl}) | 0.9 µM |
| C8-ARRK-C8: alkylated peptide in shorthand Cp-Zn-Cq, peptide SEQ ID NO: 76 ({C8 alkyl}-ARRK-{C8 alkyl}) | 10.0 µM |
| C16-LKRR-C16: geminoid in shorthand Cp-Zn-Cq, peptide SEQ ID NO: 83 | 3.0 µM |
| C3-FKKK-C3: alkylated peptide in shorthand Cp-Zn-Cq, peptide SEQ ID NO: 73 ({C3 alkyl}-FKKK-{C3 alkyl}) | 10.0 µM |
| C16-FFKK-C16: geminoid in shorthand Cp-Zn-Cq, peptide SEQ ID NO: 70 | 5.0 µM |
| C16-FLKK-C16: geminoid in shorthand Cp-Zn-Cq, peptide SEQ ID NO: 67 | 3.0 µM |
| C16-AKAKS-C16: geminoid in shorthand Cp-Zn-Cq, peptide SEQ ID NO: 89 | 1.0 µM |
| C16-NKKR-C16: geminoid in shorthand Cp-Zn-Cq, peptide SEQ ID NO: 86 | 3.0 µM |
| C16-ARRK-C16: geminoid in shorthand Cp-Zn-Cq, peptide SEQ ID NO: 76 | 0.3 µM |
| C3-AKKK-C3: alkylated peptide in shorthand Cp-Zn-Cq, peptide SEQ ID NO: 71 ({C3 alkyl}-AKKK-{C3 alkyl}) | 10.0 µM |
| C16-AKKK-C16: geminoid in shorthand Cp-Zn-Cq, peptide SEQ ID NO: 71 | 1.0 µM |
| C16-D-LKAK-L-S-C16: geminoid in shorthand Cp-Zn-Cq, D-LKAK with L-S, SEQ ID NO: 90 (C16-[dL][dK][dA][dK]S-C16) | 3.0 µM |
| C12-ARRK-C12: geminoid in shorthand Cp-Zn-Cq, peptide SEQ ID NO: 76 | 0.3 µM |
| C2-AKAK-C3: alkylated peptide in shorthand Cp-Zn-Cq, peptide SEQ ID NO: 74 (Et-AKAK-C3) | 10.0 µM |
| C16-LKAK-C16: geminoid in shorthand Cp-Zn-Cq, peptide SEQ ID NO: 75 | 3.0 µM |
| C16-FFQK-C16: geminoid in shorthand Cp-Zn-Cq, peptide SEQ ID NO: 82 | 3.0 µM |
| C12-AKAK-C12: geminoid in shorthand Cp-Zn-Cq, peptide SEQ ID NO: 74 | 10.0 µM |
| C8-FKKK-C8: alkylated peptide in shorthand Cp-Zn-Cq, peptide SEQ ID NO: 73 ({C8 alkyl}-FKKK-{C8 alkyl}) | 10.0 µM |
| C16-RARK-C16: geminoid in shorthand Cp-Zn-Cq, peptide SEQ ID NO: 77 | 3.0 µM |
| C12-FKKK-C12: geminoid in shorthand Cp-Zn-Cq, peptide SEQ ID NO: 73 | 10.0 µM |
